The test system of data set [1] is human cervical cancer (ME-180) cells. Put plainly: In vitro radiosensitizing effect, MTT assay 6 days after X-ray, ME-180. It counts as cell-based. The text has this: Dibromo-diamino-benzene (Dibromo-phenylenediamine, Compound B) was obtained from TCI—America. Diiodo-diaminobenzene (Compound C) were synthesized, purified and crystallized in our laboratory, and the structures and purity were examined by NMR and mass spectrometry. MEM and fetal bovine serum (FBS), penicillin G and streptomycin were obtained from Hyclone Laboratories (UT, USA). Stock solution of cisplatin was freshly prepared in ultrapure water or saline, and stock solutions of Compounds A, B, C, D were prepared in pure ethanol, where the final concentration of ethanol was ≦1% when treated to cells.
A human skin diploid fibroblast (GM05757 cell line) was obtained from the Coriell Cell Repository directly, while the human cervical cancer cell line (HeLa, ATCC#: CCL-2; or ME-180), human ovarian cancer cell line (NIH:OVCAR-3, ATCC#: HTB-161) and human lung cancer cell line (A549, ATCC#: CCL-185™), together with RPMI 1640, F-12K, McCoy's 5 A and L-15 culture media, were obtained from the American Type Culture Collection (ATCC) directly. Fetal bovine serum (FBS) was obtained from Hyclone Laboratories (UT, USA). The GM05757 normal cells and HeLa cells were cultivated with MEM (Hyclone) supplemented with 10% FBS, 100 units/mL penicillin G and 100 μg/mL streptomycin (Hyclone). The complete growth media for ME-180, NIH:OVCAR-3, A549 and MDA-MB-231 cells were the ATCC-formulated McCoy's 5 A Medium supplemented with 10% FBS, RPMI 1640 medium with 20%, F-12K medium with 10% FBS, and L-15 Medium (Leibovitz) with 10% FBS, respectively. The cells were maintained at 37° C. in a humidified atmosphere containing 5% CO2.
The radiosensitizing effects of RSCs on cell viability were determined by the 3-[4,5-dimethylthiazol-2-yl]-2,5-diphenyl tetrazoliumbromide (MTT) assay. Cells were cultured in 96-well plates (5×10^3 cells/well) for 24 h. The culture medium was replaced by fresh culture medium and incubated for 12 h with varying drug concentrations. The cells were then irradiated by 225 kV X-ray (PRECISION X-RAD IR 225) at a dose rate of 2 Gy/min with various X-ray doses. After irradiation, the cells were incubated for 6 days. The MTT assay of cell viability was then conducted. Briefly, 100 μl new medium without phenol red containing 1.2 mM MTT (sigma) (i.e., adding 10 μl 12 mM MTT stock solution in PBS) were added to each well and incubated for 4 h. The medium was then removed, and the formazan crystals solubilized by 100 μL/well DMSO (or alternatively by 100 μl/well SDS and incubated for another 4 h). The surviving fraction was determined by measuring the absorbance at 540 nm (570 nm for SDS solubilization) using a Multiskan Spectrum UV/Vis microplate reader (Thermo Scientific), which is directly proportional to the number of viable cells.

The test system of data set [2] is SCID mice. Put plainly: In vivo toxicity of Compound B in SCID mice. The procedure: The three groups (five 6-8 week SCID mice/group) in the experiment were: (1) control article (5% EtOH/medium); (2) Compound B 5 mg/kg in 5% EtOH/medium; and (3) Compound B 7 mg/kg in 5% EtOH/medium, as shown in Table 1. Compound B was injected IP every day for 10 days.
6.1.2 Mouse and Compound B Solution Preparation: • 6-8 week SCID mice were used in this study; Compound B as an exemplary RSC was dissolved in 5% EtOH: 95% (cell culture) medium (≈1:20).
6-8 week SCID Mice were individually weighed and injected intraperitoneally (IP) according to body weight for an injection concentration as outlined in the study group table above. […]
The overall drug toxicity in mice was observed by a survival assay and body weight measurements, and the acute drug toxicity was measured by blood collection and histology. The hepatotoxicity (ALT, ALP, AST), nephrotoxicity (blood BUN, creatinine), and electrolytes (Na, K, etc) were analyzed by HPLC-mass spectroscopy. […]
All animals were observed post administration, and at least once a day, more if deemed necessary, during the pre-treatment and treatment periods for mortality and morbidity. In particular, animals were monitored for signs of ill health such as body weight loss, change in appetite, behavior changes such as altered gait, lethargy and gross manifestations of stress.

“Also recorded” adds a separate entry of the source.

In the case of `Nc1cc(Br)c(Br)cc1N` [Compound B, 4,5-dibromo-1,2-phenylenediamine], in data set [1] (ME-180, 12-hr treatment, 0-10 Gy 225 keV X-ray, MTT at 6 days), the “enhancement of radiosensitivity of cancer cells to X-ray” value is “significant enhancement in the radiosensitivity”. Besides, the “killing of cancer cells” value in data set [1] (ME-180, 50 Gy x-ray with about 100 μM compound, about 20% survived without any RSC) is given as “early all cancer cells were killed”. Besides, the “overall toxicity in mice (survival, body weight)” value in data set [2] (IP 0, 5 and 7 mg/kg daily for 10 days) is reported as “no overall drug toxicity; also recorded: no overall toxicity in mice”. Also, in data set [2] (SCID, mouse, in vivo, 10 days), the “survival rate of mice” value amounted to 100%.

The values above are taken from patent US9655965B2, “Radiosensitizer compounds for use in combination with radiation” (priority 2013, dated 2017).
